Source: the CheMixHub viscosity set
± gives the uncertainty stated by the source.

Test: xn = mol fraction of the nth substance listed

C=CC#N + CS(C)=O
303.15 K, 101.3 kPa
Settings	viscosity [mPa·s]
x1 = 0.102	1.529 ± 0.0092
x1 = 0.2051	1.288 ± 0.0079
x1 = 0.3025	1.096 ± 0.0068
x1 = 0.3994	0.9277 ± 0.0059
x1 = 0.5057	0.771 ± 0.005
x1 = 0.6018	0.6508 ± 0.0045
x1 = 0.7045	0.5395 ± 0.004
x1 = 0.8066	0.4478 ± 0.0036
x1 = 0.8999	0.3757 ± 0.0033

CC(=O)CC(C)=O + CS(C)=O
303.15 K, 101 kPa
Settings	viscosity [mPa·s]
x2 = 0.1118	0.819 ± 0.24
x2 = 0.2207	0.9187 ± 0.25
x2 = 0.3269	1.032 ± 0.26
x2 = 0.4303	1.117 ± 0.27
x2 = 0.5312	1.209 ± 0.27
x2 = 0.6296	1.302 ± 0.27
x2 = 0.7256	1.427 ± 0.28

O=C1c2ccccc2C(=O)C1(O)O + C[N+](C)(C)CCO.[Cl-]
Settings	viscosity [mPa·s]
323.15 K, 100 kPa, x2 = 0.571	30500

C=CC#N + Cc1cc(C)cc(C)c1
307.4 K, 101.33 kPa
Settings	viscosity [mPa·s]
x2 = 0.121	0.551 ± 0.005
x2 = 0.3367	0.495 ± 0.004
x2 = 0.5736	0.424 ± 0.004
x2 = 0.649	0.406 ± 0.004
x2 = 0.7535	0.373 ± 0.003
x2 = 0.9118	0.332 ± 0.003

CC(CC(C)(C)C)CC(C)(C)C + Cc1cc(C)cc(C)c1
viscosity [mPa·s], 102 kPa
Settings	x2 = 0.1002	x2 = 0.2001	x2 = 0.3009	x2 = 0.4006	x2 = 0.4977	x2 = 0.6	x2 = 0.7	x2 = 0.8001	x2 = 0.9001
293.15 K	1.22 ± 0.02	1.13 ± 0.02	1.05 ± 0.02	0.972 ± 0.021	0.908 ± 0.021	0.848 ± 0.021	0.805 ± 0.021	0.761 ± 0.021	0.727 ± 0.021
303.15 K	1.03 ± 0.02	0.96 ± 0.021	0.893 ± 0.021	0.837 ± 0.021	0.789 ± 0.021	0.738 ± 0.021	0.697 ± 0.021	0.658 ± 0.021	0.63 ± 0.021
313.15 K	0.892 ± 0.021	0.831 ± 0.021	0.782 ± 0.021	0.732 ± 0.021	0.691 ± 0.021	0.65 ± 0.021	0.614 ± 0.021	0.58 ± 0.021	0.555 ± 0.021
323.15 K	0.781 ± 0.021	0.738 ± 0.021	0.693 ± 0.021	0.649 ± 0.021	0.613 ± 0.021	0.578 ± 0.021	0.546 ± 0.021	0.517 ± 0.021	0.494 ± 0.021

CC(CC(C)(C)C)CC(C)(C)C + Cc1ccc(C)c(C)c1
viscosity [mPa·s], 102 kPa
Settings	x2 = 0.0923	x2 = 0.2008	x2 = 0.3004	x2 = 0.4003	x2 = 0.4979	x2 = 0.5999	x2 = 0.7003	x2 = 0.7999	x2 = 0.8992
293.15 K	1.24 ± 0.02	1.16 ± 0.02	1.09 ± 0.02	1.03 ± 0.02	0.975 ± 0.022	0.93 ± 0.022	0.891 ± 0.021	0.864 ± 0.021	0.848 ± 0.022
303.15 K	1.05 ± 0.02	0.981 ± 0.021	0.926 ± 0.021	0.882 ± 0.021	0.845 ± 0.021	0.808 ± 0.021	0.776 ± 0.021	0.75 ± 0.021	0.736 ± 0.021
313.15 K	0.906 ± 0.021	0.855 ± 0.021	0.813 ± 0.021	0.774 ± 0.021	0.739 ± 0.021	0.709 ± 0.021	0.679 ± 0.021	0.657 ± 0.021	0.647 ± 0.021
323.15 K	0.789 ± 0.021	0.749 ± 0.021	0.716 ± 0.021	0.683 ± 0.021	0.652 ± 0.021	0.625 ± 0.021	0.602 ± 0.021	0.582 ± 0.021	0.573 ± 0.021

CN(C)c1ccccc1 + Cc1ccccc1
viscosity [mPa·s], 101 kPa
Settings	x1 = 0.1011	x1 = 0.1961	x1 = 0.3125	x1 = 0.4011	x1 = 0.493	x1 = 0.5974	x1 = 0.701	x1 = 0.8015	x1 = 0.8983
298.15 K	0.597 ± 0.011	0.653 ± 0.012	0.711 ± 0.012	0.767 ± 0.013	0.831 ± 0.014	0.906 ± 0.015	0.989 ± 0.017	1.066 ± 0.018	1.173 ± 0.019
303.15 K	0.561 ± 0.01	0.604 ± 0.011	0.668 ± 0.012	0.714 ± 0.012	0.77 ± 0.013	0.834 ± 0.014	0.911 ± 0.015	0.988 ± 0.017	1.07 ± 0.018
308.15 K	0.532 ± 0.01	0.57 ± 0.01	0.625 ± 0.011	0.671 ± 0.012	0.726 ± 0.013	0.782 ± 0.013	0.854 ± 0.015	0.918 ± 0.015	0.999 ± 0.017
313.15 K	0.499 ± 0.009	0.536 ± 0.01	0.586 ± 0.011	0.619 ± 0.011	0.664 ± 0.012	0.726 ± 0.013	0.78 ± 0.013	0.851 ± 0.015	0.914 ± 0.015
